Tests used:
MCF7 cells = assay: Inhibition of the proliferation of MCF7 cells (CellTiter-Glo); format: cell-based; conditions: Homo sapiens, MCF7, 168 h; 7 days treatment; read-out: MCF-7 cell proliferation inhibition IC50
Description: The purpose of the experiment is to determine the inhibitory effect of the compounds of the present invention on the proliferation of MCF7 cells in vitro, and to evaluate the activity of the compounds according to IC50 and maximum inhibitory efficiency.
MCF7 cells (ATCC, HTB-22) were cultured in DMEM (Gibco, 11995-065) complete medium containing 10% fetal bovine serum. On the first day of the experiment, MCF7 cells were inoculated in a 384-well plate at a density of 500 cells/well using the complete medium, and cultured in a 37° C., 5% CO2 cell incubator overnight. The next day, the compounds to be tested were added for drug treatment, and the compound solution with a stock concentration of 10 mM was diluted with Echo550 (Labcyte Inc.) and transferred to each cell culture well. Each compound with the starting concentration for treatment of 100 nM in cells was subjected to 3-fold gradient dilution with 9 concentration points. A blank control containing 0.3% DMSO was set, and double replicate wells as controls were set at each concentration point. The culture was cultured in a 37° C., 5% CO2 cell incubator for 7 days, and the cell culture plate was taken out on day 8.

CYP2C9 = CYP2C9 (Homo sapiens (Human), UniProt P11712); assay: Inhibition of CYP2C9 enzymatic activity in human liver microsomes; format: in vitro ADME; conditions: substrate diclofenac
Description: (§1) The inhibition of CYP2C9 and CYP2D6 enzymatic activities by the compounds of the present invention was determined by the following test method.
(§2) • 1. Human liver microsomes (Corning 452117) • 2. NADPH (Solarbio 705Y021) • 3. Positive substrates diclofenac (Sigma SLBV3438), dextromethorphan (TRC 3-EDO-175-1) and midazolam (Cerilliant FE01161704) • 4. Positive inhibitors sulfaphenazole (D. Ehrenstorfer GmbH 109012), quinidine (TCI WEODL-RE) and ketoconazole (Sigma 100M1091V) • 5. AB Sciex Triple Quad 5500 liquid chromatography-mass spectrometry
(§3) 1. Preparation of 100 mM phosphate buffered saline (PBS): 7.098 g of Na2HPO4 was weighed, 500 mL of pure water was added and subjected to ultrasonic dissolution to obtain solution A. 3.400 g of KH2PO4 was weighed, 250 mL of pure water was added and subjected to ultrasonic dissolution to obtain solution B. Solution A was placed on a stirrer and solution B was slowly added until pH reaches 7.4 to prepare 100 mM PBS buffer.
(§4) 2. Preparation of 10 mM NADPH solution with 100 mM PBS buffer. 10 mM stock solution of compounds of the invention was diluted with DMSO to obtain a 200× concentration of compound working solution (6000, 2000, 600, 200, 60, 20, 0 µM). The stock solution of positive inhibitors was diluted with DMSO to obtain a 200× concentration of positive inhibitor working solution (sulfaphenazole, 1000, 300, 100, 30, 10, 3, 0 µM; quinidine/ketoconazole, 100, 30, 10, 3, 1, 0.3, 0 µM). A 200 × concentration of substrate working solution (120 µM of diclofenac, 400 µM of dextromethorphan, and 200 µM of midazolam) was prepared in water, acetonitrile, or acetonitrile/methanol.
(§5) 3. 2 µl of 20 mg/ml liver microsome solution, 1 µl of substrate working solution, 1 µl of compound working solution and 176 µl of PBS buffer were taken, mixed uniformly, and pre-incubated in a 37° C. water bath for 15 minutes. […]
(§6) The IC50 values of the compounds of the present invention against CYP2C9 and CYP2D6 were calculated by Excel XLfit 5.3.1.3.

CYP2D6 = CYP2D6 (Homo sapiens (Human), UniProt P10635); assay: Inhibition of CYP2D6 enzymatic activity in human liver microsomes; format: in vitro ADME; conditions: substrate dextromethorphan
Description: as §1, §2, §3, §4, §5, §6

[1] = Pharmacokinetic evaluation in mice; format: in vivo; conditions: CD-1 mice; for bioavailability: female, mouse, plasma, PO 10 mg/kg vs IV 1 mg/kg
Description: Six female CD-1 mice (20-30 g, 4-6 weeks) were randomized into 2 groups, 3 mice/group. Group 1 was given the test compound via tail vein injection at a dose of 1 mg/kg, and the vehicle was 5% DMSO in 10% HP-β-CD in water, and group 2 was given the test compound orally at a dose of 10 mg/kg, and the vehicle was 40% Tetraethylene Glycol (v/v), 7.5% Captisol (w/v) in water. Prior to the experiment, the animals were given food and water as usual. Before administration and 0.083 (only for the vein injection group), 0.25, 0.5, 1, 2, 4, 6, 8 and 24 h after administration, blood was sampled from the veins of the mice in each group. The whole blood sample collected was placed in a K2EDTA anticoagulation tube and centrifuged for 5 min (12,000 rpm, 4° C.) and then the plasma was taken for later detection.
10 µL of the mouse plasma sample was taken and 150 µL of acetonitrile solvent (wherein internal standard compound was contained) was added to precipitate proteins. After the mixture was vortexed for 5 min, centrifugation (14,000 rpm) was performed for 5 min. The supernatant was diluted 2-fold with water containing 0.1% (v/v) FA and injected into the LC-MS/MS system (AB Sciex Triple Quad 6500+) for the quantitative detection. A calibration standard curve was prepared in CD-1 mouse plasma along with quality control samples to determine the plasma concentration. For the 10x diluted samples, 2 µL of the sample was taken and 18 µL of blank plasma was added. After the mixture was vortexed for 0.5 min, 300 µL of acetonitrile solvent (wherein an internal standard compound was contained) was added to precipitate proteins. The other processing steps were identical to those for the samples not diluted.

Chain of CYP2C9 (P11712 whole entry): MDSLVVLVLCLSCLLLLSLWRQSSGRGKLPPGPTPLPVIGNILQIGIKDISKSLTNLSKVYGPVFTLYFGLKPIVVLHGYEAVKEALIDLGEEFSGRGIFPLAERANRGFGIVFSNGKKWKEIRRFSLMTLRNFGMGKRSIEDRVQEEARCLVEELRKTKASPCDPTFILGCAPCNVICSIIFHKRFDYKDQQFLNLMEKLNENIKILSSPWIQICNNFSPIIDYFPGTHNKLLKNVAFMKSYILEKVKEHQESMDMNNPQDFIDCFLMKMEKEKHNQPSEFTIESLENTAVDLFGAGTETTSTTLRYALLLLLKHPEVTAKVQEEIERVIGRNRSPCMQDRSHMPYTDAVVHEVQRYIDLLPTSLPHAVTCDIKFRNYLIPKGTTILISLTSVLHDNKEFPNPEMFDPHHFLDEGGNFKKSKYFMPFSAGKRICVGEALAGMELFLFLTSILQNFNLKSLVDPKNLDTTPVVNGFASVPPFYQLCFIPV
Chain of CYP2D6 (P10635 whole entry): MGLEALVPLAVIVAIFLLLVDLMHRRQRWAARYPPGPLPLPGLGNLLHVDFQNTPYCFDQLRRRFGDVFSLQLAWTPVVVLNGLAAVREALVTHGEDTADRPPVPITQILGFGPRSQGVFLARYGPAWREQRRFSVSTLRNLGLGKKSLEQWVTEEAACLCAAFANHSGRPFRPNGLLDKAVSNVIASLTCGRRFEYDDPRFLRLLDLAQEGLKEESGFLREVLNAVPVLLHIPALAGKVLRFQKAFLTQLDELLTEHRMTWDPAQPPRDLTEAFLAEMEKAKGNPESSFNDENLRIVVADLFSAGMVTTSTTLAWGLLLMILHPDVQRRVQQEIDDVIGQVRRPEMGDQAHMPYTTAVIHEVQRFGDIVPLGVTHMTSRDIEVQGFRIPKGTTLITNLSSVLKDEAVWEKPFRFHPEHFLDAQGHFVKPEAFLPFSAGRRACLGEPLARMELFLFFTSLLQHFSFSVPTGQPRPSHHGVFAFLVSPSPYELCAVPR

| Structure (SMILES) | IC50 (MCF7 cells) | IC50 (CYP2C9) | IC50 (CYP2D6) | Drug exposure ([1]; IV 1 mg/kg) | Maximum drug concentration ([1]; IV 1 mg/kg) | Time of half drug elimination ([1]; IV 1 mg/kg) | Drug exposure ([1]; PO 10 mg/kg) | Maximum drug concentration ([1]; PO 10 mg/kg) | Time of half drug elimination ([1]; PO 10 mg/kg) | Time to peak drug concentration ([1]; PO 10 mg/kg) | bioavailability [1] |
| --- | --- | --- | --- | --- | --- | --- | --- | --- | --- | --- | --- |
| C[C@@H]1Cc2c([nH]c3ccccc23)C(c2c(F)cc(N[C@H]3CCN(CCCF)C3)cc2F)N1CC(F)(F)F (stereo in doubt) [Example 4, (S)-N-(3,5-difluoro-4-((1S,3R)-3-methyl-2-(2,2,2-trifluoroethyl)-2,3,4,9-tetrahydro-1H-pyridino[3,4-b]indol-1-yl)phenyl)-1-(3-fluoropropyl)pyrrolidin-3-amine] | 0.00023 µM | 20 µM | 27 µM | 639 ng·h/mL | 78 ng/mL | 21 h | 3853 ng·h/mL | 222 ng/mL | 19 h | 5 h | 60% |
| C[C@@H]1Cc2c([nH]c3ccccc23)C(c2c(F)cc(N[C@H]3CCN(CCCF)C3)cc2F)N1CC(F)(F)CO (stereo in doubt) [Example 7, 3-((1S,3R)-1-(2,6-difluoro-4-(((S)-1-(3-fluoropropyl)pyrrolidin-3-yl)amino)phenyl)-3-methyl-3,4-dihydro-1H-pyridino [3,4-b]indole-2(9H)-yl)-2,2-difluoropropane-1-ol] | 0.00012 µM | 8 µM | 23 µM | 879 ng·h/mL | 259 ng/mL | 5 h | 5447 ng·h/mL | 555 ng/mL | 4 h | 1 h | 62% |
| C[C@@H]1Cc2c([nH]c3ccccc23)[C@@H](c2ccc(N[C@H]3CCN(CCCF)C3)cn2)N1CC(F)(F)F [Example 3, N-((S)-1-(3-fluoropropyl)pyrrolidin-3-yl)-6-((1S,3R)-3-methyl-2-(2,2,2-trifluoroethyl)-2,3,4,9-tetrahydro-1H-pyridino[3,4-b]indol-1-yl)pyridine-3-amine] | 0.00027 µM | > 30 µM | > 30 µM | 414 ng·h/mL | 98 ng/mL | 13 h | 2804 ng·h/mL | 219 ng/mL | 9 h | 3 h | 68% |

Reference: US20230348459A1, “PYRROLIDINE COMPOUND AND USE THEREOF” (SIMCERE PHARMACEUTICAL CO., LTD., priority 2020, published 2023)
